ChEMBL document CHEMBL3045073, “Synthesis of -amino carbonyl derivatives of coumarin and benzofuran and evaluation of their biological activity” (Med Chem Res, 2013)
Converted amounts (≈) assume the structure as drawn. The source made the active and inactive calls. The rule behind the calls is not given here.

Key:
[1] = tested on: Radical scavenging activity; experiment: Antioxidant activity assessed as DPPH free radical scavenging activity at 100 ug/mL after 10 min UV-Vis spectrophotometric analysis relative to control; format: functional
Aspergillus flavus [2] = experiment: Antifungal activity against Aspergillus flavus assessed as growth inhibition after 72 hr by serial broth dilution method; format: functional
Candida albicans [3] = experiment: Antifungal activity against Candida albicans MTCC227 assessed as growth inhibition after 72 hr by serial broth dilution method
Pseudomonas aeruginosa [4] = experiment: Antibacterial activity against Pseudomonas aeruginosa ATCC 27853 assessed as growth inhibition at 50 mg/mL after 24 hr by agar well diffusion method; format: functional; details: for zone of inhibition at 50000 µg/mL: ATCC 27853, 24 h, read-out: IZ
Escherichia coli [5] = experiment: Antibacterial activity against Escherichia coli ATCC 25922 assessed as growth inhibition at 50 mg/mL after 24 hr by agar well diffusion method; details: for zone of inhibition at 50000 µg/mL: ATCC 25922, 24 h, read-out: IZ
Aspergillus flavus [6] = experiment: Antifungal activity against Aspergillus flavus assessed as growth inhibition at 50 mg/mL after 72 hr by agar well diffusion method; format: functional; details: for zone of inhibition at 50000 µg/mL: read-out: IZ
[7] = tested on: Chrysosporium keratinophilum; experiment: Antifungal activity against Chrysosporium keratinophilum assessed as growth inhibition after 72 hr by serial broth dilution method; format: functional
Staphylococcus aureus [8] = experiment: Antibacterial activity against Staphylococcus aureus ATCC 25923 assessed as growth inhibition at 50 mg/mL after 24 hr by agar well diffusion method; details: for zone of inhibition at 50000 µg/mL: ATCC 25923, 24 h, read-out: IZ
Staphylococcus aureus [9] = experiment: Antibacterial activity against Staphylococcus aureus ATCC 25923 assessed as growth inhibition after 24 hr by serial broth dilution method
[10] = tested on: Chrysosporium keratinophilum; experiment: Antifungal activity against Chrysosporium keratinophilum assessed as growth inhibition at 50 mg/mL after 72 hr by agar well diffusion method; format: functional; details: for zone of inhibition at 50000 µg/mL: read-out: IZ
Candida albicans [11] = experiment: Antifungal activity against Candida albicans MTCC227 assessed as growth inhibition at 50 mg/mL after 72 hr by agar well diffusion method; details: for zone of inhibition at 50000 µg/mL: MTCC227, 72 h, read-out: IZ
Escherichia coli [12] = experiment: Antibacterial activity against Escherichia coli ATCC 25922 assessed as growth inhibition after 24 hr by serial broth dilution method
Pseudomonas aeruginosa [13] = experiment: Antibacterial activity against Pseudomonas aeruginosa ATCC 27853 assessed as growth inhibition after 24 hr by serial broth dilution method; format: functional

SMILES	MIC (Aspergillus flavus [2])	MIC (Candida albicans [3]; MTCC227, 72 h) [µg/mL]	MIC [7]	MIC (Staphylococcus aureus [9]; ATCC 25923, 24 h) [µg/mL]	MIC (Escherichia coli [12]; ATCC 25922, 24 h) [µg/mL]	MIC (Pseudomonas aeruginosa [13]; ATCC 27853, 24 h) [µg/mL]	MIC (Candida albicans [3])	Activity [1] [%]	zone of inhibition at 50000 µg/mL (Pseudomonas aeruginosa [4]) [mm]	zone of inhibition at 50000 µg/mL (Escherichia coli [5]) [mm]	zone of inhibition at 50000 µg/mL (Aspergillus flavus [6]) [mm]	zone of inhibition at 50000 µg/mL (Staphylococcus aureus [8]) [mm]	zone of inhibition at 50000 µg/mL [10] [mm]	zone of inhibition at 50000 µg/mL (Candida albicans [11]) [mm]	growth inhibition (GI) (Candida albicans [11])	further results
Cc1cc(C(C)(C)C)c(O)c(C(C)(C)C)c1								90								
COc1ccc(C(CC(=O)c2cc3ccccc3o2)Nc2ccc(C(=O)O)cc2)cc1 (configuration not stated)	500 µg/mL (≈ 1200 µM)		500 µg/mL (≈ 1200 µM)	500 (≈ 1200 µM)	500 (≈ 1200 µM)	500 (≈ 1200 µM)	inactive	14.2	1	3	1	1	2		inactive	
O=C(CC(Nc1ccccc1)c1ccccc1)c1cc2ccccc2o1 (configuration not stated)	500 µg/mL (≈ 1460 µM)	500 (≈ 1460 µM)	500 µg/mL (≈ 1460 µM)	500 (≈ 1460 µM)	500 (≈ 1460 µM)	500 (≈ 1460 µM)		28.7	1	1	2	1	1	2		
COc1ccc(C(CC(=O)c2cc3ccccc3o2)Nc2ccccc2)cc1 (configuration not stated)	inactive		inactive				inactive	27.3							inactive	growth inhibition (GI) (Pseudomonas aeruginosa [4]): inactive; growth inhibition (GI) (Escherichia coli [5]): inactive; growth inhibition (GI) (Aspergillus flavus [6]): inactive; growth inhibition (GI) (Staphylococcus aureus [8]): inactive; MIC (Staphylococcus aureus [9]): inactive; growth inhibition (GI) [10]: inactive; MIC (Escherichia coli [12]): inactive; MIC (Pseudomonas aeruginosa [13]): inactive

Continued, in another order:

MIC (Aspergillus flavus [2])	MIC (Candida albicans [3]; MTCC227, 72 h) [µg/mL]	MIC [7]	MIC (Staphylococcus aureus [9]; ATCC 25923, 24 h) [µg/mL]	MIC (Escherichia coli [12]; ATCC 25922, 24 h) [µg/mL]	MIC (Pseudomonas aeruginosa [13]; ATCC 27853, 24 h) [µg/mL]	MIC (Candida albicans [3])	SMILES	Activity [1] [%]	zone of inhibition at 50000 µg/mL (Pseudomonas aeruginosa [4]) [mm]	zone of inhibition at 50000 µg/mL (Escherichia coli [5]) [mm]	zone of inhibition at 50000 µg/mL (Aspergillus flavus [6]) [mm]	zone of inhibition at 50000 µg/mL (Staphylococcus aureus [8]) [mm]	zone of inhibition at 50000 µg/mL [10] [mm]	zone of inhibition at 50000 µg/mL (Candida albicans [11]) [mm]	growth inhibition (GI) (Candida albicans [11])	further results
250 µg/mL (≈ 545 µM)	500 (≈ 1090 µM)	350 µg/mL (≈ 763 µM)	500 (≈ 1090 µM)	500 (≈ 1090 µM)	430 (≈ 938 µM)		O=C(O)c1ccc(NC(CC(=O)c2cc3ccccc3oc2=O)c2ccc([N+](=O)[O-])cc2)cc1 (configuration not stated)	15.3	6	3	5	3	6	4		
40 µg/mL (≈ 89.3 µM)	50 (≈ 112 µM)	40 µg/mL (≈ 89.3 µM)	50 (≈ 112 µM)	50 (≈ 112 µM)	40 (≈ 89.3 µM)		O=C(O)c1ccc(NC(CC(=O)c2cc3ccccc3oc2=O)c2ccc(Cl)cc2)cc1 (configuration not stated)	34.7	13	13	11	11	15	19		
40 µg/mL (≈ 95.3 µM)	50 (≈ 119 µM)	40 µg/mL (≈ 95.3 µM)	130 (≈ 310 µM)	120 (≈ 286 µM)	140 (≈ 333 µM)		O=C(O)c1ccc(NC(CC(=O)c2cc3ccccc3o2)c2ccc(Cl)cc2)cc1 (configuration not stated)	31.2	7	9	7	8	13	17		
inactive		inactive				inactive	COc1ccc(C(CC(=O)c2cc3ccccc3oc2=O)Nc2ccc(C(=O)O)cc2)cc1 (configuration not stated)	18.1							inactive	growth inhibition (GI) (Pseudomonas aeruginosa [4]): inactive; growth inhibition (GI) (Escherichia coli [5]): inactive; growth inhibition (GI) (Aspergillus flavus [6]): inactive; growth inhibition (GI) (Staphylococcus aureus [8]): inactive; MIC (Staphylococcus aureus [9]): inactive; growth inhibition (GI) [10]: inactive; MIC (Escherichia coli [12]): inactive; MIC (Pseudomonas aeruginosa [13]): inactive
